Results taken from publication PMC9655428, “N-Hydroxy-N-Propargylamide Derivatives of Ferulic Acid: Inhibitors of Cholinesterases and Monoamine Oxidases” (Molecules, 2022).
Entries after “also recorded” stand apart in the source; their conditions may differ.

Tests used:
hBChE = target: T1, hBChE (Homo sapiens, UniProt P06276); assay: Inhibition of hBChE (Ellman spectrophotometric assay); type: biochemical; conditions: ni = no inhibition; for hBChE % @ 10 µM: inhibition at 10 µM
T1 construct: purchased Sigma Aldrich
Method: (§1) Inhibition assays were performed according to previously published protocols. […] Compound 3 is a hydroxamate in which the piperidine ring is attached to the C4 oxygen via an n-butyl linker, while compound 6 is a corresponding N-propargylhydroxamate.
(§2) Inhibition assays were performed according to previously published protocols. […] Briefly, the classical Ellman spectrophotometric assay (for ChEs) and fluorimetric detection of 4-hydroxyquinoline (for MAOs) were adapted to a plate reading procedure using 96-well microtiter plates (Greiner Bio-Frickenhausen, Frickenhausen, Germany). Readings were performed using the Infinite M1000 Pro plate reader (Tecan, Cernusco s.N., Cernusco sul Naviglio, MI, Italy), and statistical regression was performed using Prism software (GraphPad Prism version 5.00 for Windows, GraphPad Software, San Diego, CA, USA).

hAChE = target: T2, hAChE (Homo sapiens, UniProt P22303); assay: Inhibition of hAChE (Ellman spectrophotometric assay); type: biochemical; conditions: for IC50: seven concentrations 30–0.01 µM; for hAChE % @ 10 µM: inhibition at 10 µM
T2 construct: purchased Sigma Aldrich
Method: as §1, §2

hMAO-B = target: T3, hMAO-B (Homo sapiens, UniProt P27338); assay: Inhibition of hMAO-B (fluorimetric detection of 4-hydroxyquinoline); type: biochemical; conditions: ni = no inhibition
T3 construct: purchased Sigma Aldrich
T3 sequence (P27338 1-520): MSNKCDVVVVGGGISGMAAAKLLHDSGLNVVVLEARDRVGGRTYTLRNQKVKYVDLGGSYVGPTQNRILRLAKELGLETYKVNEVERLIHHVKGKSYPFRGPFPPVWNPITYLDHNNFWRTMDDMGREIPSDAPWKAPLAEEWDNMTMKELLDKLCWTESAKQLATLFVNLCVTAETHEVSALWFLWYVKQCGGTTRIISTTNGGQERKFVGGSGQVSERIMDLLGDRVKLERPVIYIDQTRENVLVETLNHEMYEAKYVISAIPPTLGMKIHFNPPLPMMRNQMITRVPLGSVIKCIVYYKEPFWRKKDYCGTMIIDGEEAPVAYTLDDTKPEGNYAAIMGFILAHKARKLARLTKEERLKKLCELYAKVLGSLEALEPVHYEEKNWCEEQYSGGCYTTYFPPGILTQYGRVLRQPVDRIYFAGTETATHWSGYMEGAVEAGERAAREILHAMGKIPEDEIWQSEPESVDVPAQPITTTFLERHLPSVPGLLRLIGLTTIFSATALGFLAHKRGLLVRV
Method: as §1, §2

hMAO-A = target: T4, hMAO-A (Homo sapiens, UniProt P21397); assay: Inhibition of hMAO-A (fluorimetric detection of 4-hydroxyquinoline); type: biochemical; conditions: ni = no inhibition
T4 construct: purchased Sigma Aldrich
T4 sequence (P21397 1-527): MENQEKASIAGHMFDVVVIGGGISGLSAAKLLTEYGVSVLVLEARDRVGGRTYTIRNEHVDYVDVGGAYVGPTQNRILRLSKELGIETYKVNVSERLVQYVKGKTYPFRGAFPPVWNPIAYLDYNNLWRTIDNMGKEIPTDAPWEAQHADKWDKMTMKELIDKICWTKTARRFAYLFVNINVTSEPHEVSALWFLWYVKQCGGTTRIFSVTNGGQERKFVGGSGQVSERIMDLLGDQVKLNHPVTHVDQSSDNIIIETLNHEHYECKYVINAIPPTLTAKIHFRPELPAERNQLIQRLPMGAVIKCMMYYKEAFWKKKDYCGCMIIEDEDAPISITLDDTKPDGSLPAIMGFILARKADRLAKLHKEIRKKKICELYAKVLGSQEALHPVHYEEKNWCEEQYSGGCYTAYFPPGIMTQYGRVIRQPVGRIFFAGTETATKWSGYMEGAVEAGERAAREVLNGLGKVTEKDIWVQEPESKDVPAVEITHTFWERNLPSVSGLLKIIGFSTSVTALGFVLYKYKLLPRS
Method: as §1, §2

[1] = DPPH radical-scavenging assay; conditions: DPPH 70 µM in MeOH, 1.5 h incubation
Source text: In addition, antioxidants or natural products containing polyphenols are also being investigated in clinical trials involving AD patients. Therefore, the antioxidant properties of compound 4 were investigated using the 2,2-diphenyl-1-picrylhydrazyl radical (DPPH) scavenging assay, a simple and reliable in vitro assay. […] Hydroxamic acids are considered to be potent antioxidants, and, in combination with cholinesterase inhibitory activity, could not only alleviate symptoms but also have disease-modifying effects.
Compound 4 at concentrations of 3.125–50 µM was incubated for 1.5 h with 2,2-diphenyl-1-picrylhydrazyl radical (DPPH, 70 µM) in MeOH, and absorbance was measured (λ = 517 nm) using a Synergy™ H4 reader (BioTek Instruments, Inc., Winooski, VT, USA). The experiment was performed in three technical replicates, and the blank sample (compound 4 without DPPH) was subtracted. The results are expressed as the percentage of DPPH free radicals (DPPH free radicals (%) = ((A0 − A1)/A0) × 100, where A0 is the absorbance of DPPH in MeOH and A1 is the absorbance of DPPH in the presence of compound 4).

[2] = Metal chelation, UV-Vis absorption assay, Cu2+; type: physicochemical; conditions: 30 µM compound, equimolar CuCl2, 30 min, pH 7.4
Method: (§3) Another therapeutic possibility currently under investigation is metal chelation, which could affect not only the redox cycling of metal ions but also Aβ- and tau-pathology. Metal chelation of compound 4 was investigated using a UV-Vis absorption assay, in which the compound was incubated with equimolar concentrations of the major bivalent biometals (i.e., Ca^2+, Mg^2+, Zn^2+, Cu^2+, Fe^2+, Mn^2+, Co^2+, and Ni^2+) (Figure 4).
(§4) Metal chelation was determined in assay buffer (20 mM Na-HEPES, 150 mM NaCl, pH 7.4) according to the procedure described previously. Stock solutions of the metals at 100 mM concentrations were prepared in MilliQ water (Milli-Q advantage A10 Ultrapure Water Purification System, Millipore, KGaA, Darmstadt, Germany). The FeCl2 stock solution (100 mM) was prepared in the presence of ascorbic acid (1 mM). Compound 4 at a concentration of 30 μM was incubated for 30 min with equimolar concentrations of CuCl2, ZnCl2, MgCl2, CaCl2, MnCl2, FeCl2, CoCl2, and NiCl2. Absorbance spectra were measured on a Synergy™ H4 reader (BioTek Instruments, Inc., Winooski, VT, USA).

[3] = Metal chelation, UV-Vis absorption assay, Ca2+; type: physicochemical; conditions: 30 µM compound, equimolar CaCl2, 30 min, pH 7.4
Method: as §3, §4

[4] = Metal chelation, UV-Vis absorption assay, Fe2+; type: physicochemical; conditions: 30 µM compound, equimolar FeCl2, 30 min, pH 7.4
Method: as §3, §4

T1 sequence (P06276 29-602): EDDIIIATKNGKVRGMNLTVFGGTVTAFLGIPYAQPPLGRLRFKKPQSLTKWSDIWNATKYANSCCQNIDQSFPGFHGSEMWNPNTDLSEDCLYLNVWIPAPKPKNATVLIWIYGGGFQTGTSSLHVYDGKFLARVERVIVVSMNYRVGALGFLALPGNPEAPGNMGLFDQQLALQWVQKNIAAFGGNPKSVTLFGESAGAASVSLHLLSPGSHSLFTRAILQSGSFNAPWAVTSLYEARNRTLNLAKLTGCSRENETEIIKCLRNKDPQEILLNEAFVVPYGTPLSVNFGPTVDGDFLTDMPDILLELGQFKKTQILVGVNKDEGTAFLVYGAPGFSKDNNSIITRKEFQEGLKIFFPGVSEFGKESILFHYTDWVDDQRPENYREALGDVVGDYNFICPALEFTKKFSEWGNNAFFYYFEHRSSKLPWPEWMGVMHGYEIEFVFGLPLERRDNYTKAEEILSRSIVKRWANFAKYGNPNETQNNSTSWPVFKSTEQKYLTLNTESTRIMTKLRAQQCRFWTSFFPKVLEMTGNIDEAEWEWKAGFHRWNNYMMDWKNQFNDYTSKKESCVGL
T2 sequence (P22303 32-614): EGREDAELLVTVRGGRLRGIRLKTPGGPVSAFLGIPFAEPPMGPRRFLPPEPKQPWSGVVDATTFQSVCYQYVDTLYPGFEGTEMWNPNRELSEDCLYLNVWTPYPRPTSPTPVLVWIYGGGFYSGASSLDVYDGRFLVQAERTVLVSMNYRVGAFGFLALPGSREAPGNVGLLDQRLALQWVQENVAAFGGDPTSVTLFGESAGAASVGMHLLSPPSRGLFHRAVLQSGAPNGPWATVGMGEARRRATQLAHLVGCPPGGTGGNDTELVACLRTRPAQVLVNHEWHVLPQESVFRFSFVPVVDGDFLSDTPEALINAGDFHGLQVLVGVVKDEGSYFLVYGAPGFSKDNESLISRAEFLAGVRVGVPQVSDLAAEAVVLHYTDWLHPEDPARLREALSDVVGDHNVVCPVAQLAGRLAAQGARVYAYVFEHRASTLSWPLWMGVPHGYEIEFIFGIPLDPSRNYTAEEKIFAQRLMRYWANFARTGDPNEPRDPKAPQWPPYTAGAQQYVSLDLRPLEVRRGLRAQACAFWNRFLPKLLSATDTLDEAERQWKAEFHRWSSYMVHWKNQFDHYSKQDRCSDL

| SMILES | hBChE % @ 10 µM (hBChE) | IC50 (hAChE) [µM] | inhibition at 10 µM (hMAO-B) [%] | inhibition at 10 µM (hMAO-A) [%] | hAChE % @ 10 µM (hAChE) [%] | also measured |
| --- | --- | --- | --- | --- | --- | --- |
| COc1cc(/C=C/C(=O)NO)ccc1OCCCCN1CCCCC1 [Compound 3, (E)-N-Hydroxy-3-(3-methoxy-4-(4-(piperidin-1-yl)butoxy)phenyl)acrylamide] | ni | 6.58 ± 0.27 | 11 ± 4 | 5 ± 3 |  |  |
| COc1cc(/C=C/C(=O)NO)ccc1OCCCN1CCCCC1 [Compound 2, (E)-N-Hydroxy-3-(3-methoxy-4-(3-(piperidin-1-yl)propoxy)phenyl)acrylamide] | ni |  | 21 ± 4 | 15 ± 5 | 42 ± 2 |  |
| C#CCN(O)C(=O)/C=C/c1ccc(OCCN2CCCCC2)c(OC)c1 [Compound 4, (E)-N-Hydroxy-3-(3-methoxy-4-(2-(piperidin-1-yl)ethoxy)phenyl)-N-(prop-2-yn-1-yl)acrylamide] |  | 2.63 ± 0.57 | 20 ± 4 | 26 ± 5 |  | inhibition at 10 µM (hBChE): 38 ± 2%; EC50 [1]: 40.9 ± 0.5 µM; Cu^2+ chelation (spectral change) [2]: efficiently bound Cu^2+ ions; also recorded: chelated divalent copper ions; Ca^2+ chelation (spectral change) [3]: does not appear to be due to the formation of a Ca^2+/4 complex; Fe^2+ chelation (spectral change) [4]: ferrous ions were also bound |
| O=C(NO)c1ccccc1 [Compound 15, N-Hydroxybenzamide] | ni |  | 16 ± 3 | 11 ± 3 | 58 ± 5 |  |
| C#CCN(O)C(=O)/C=C/c1ccc(OCCCN2CCCCC2)c(OC)c1 [Compound 5, (E)-N-Hydroxy-3-(3-methoxy-4-(3-(piperidin-1-yl)propoxy)phenyl)-N-(prop-2-yn-1-yl)acrylamide] | ni |  | 16 ± 5 | 23 ± 6 | 41 ± 4 |  |
| C#CCN(O)C(=O)c1ccccc1 [Compound 16, N-Hydroxy-N-(prop-2-yn-1-yl)benzamide] | ni |  | 16 ± 5 | 14 ± 4 | 40 ± 4 |  |
| COc1cc(/C=C/C(=O)NO)ccc1OCCN1CCCCC1 [Compound 1, (E)-N-Hydroxy-3-(3-methoxy-4-(2-(piperidin-1-yl)ethoxy)phenyl)acrylamide] |  |  | 26 ± 5 | 20 ± 5 | 51 ± 2 | inhibition at 10 µM (hBChE): 18 ± 4% |
| C#CCN(O)C(=O)/C=C/c1ccc(OCCCCN2CCCCC2)c(OC)c1 [Compound 6, (E)-N-Hydroxy-3-(3-methoxy-4-(4-(piperidin-1-yl)butoxy)phenyl)-N-(prop-2-yn-1-yl)acrylamide] | ni | 7.2 ± 0.54 |  |  |  | hMAO-B % @ 10 µM (hMAO-B; inhibition at 10 µM): ni; hMAO-A % @ 10 µM (hMAO-A; inhibition at 10 µM): ni |
| Cc1c(C)c2c(c(C)c1O)CCC(C)(C(=O)O)O2 (stereo not shown) [Trolox, reference compound] |  |  |  |  |  | EC50 [1]: 12.4 ± 0.3 µM |
